Laboratory results published in patent publication US9006261B2, “Fluorescent perylene derivatives for direct detection of heparin” (priority 2009, dated 2015).

Assay: Fluorescence response to Dalteparin sodium in buffer, serum and plasma
Type: binding
Conditions: fluorescence of perylene diimide derivative/LMWH mixture
Method: The response of the perylene diimide derivative to heparin was additionally studied using Dalteparin sodium (0.4-0.8 IU/mL), a clinically important LMWH preparation with a mean molecular weight of 5000 g/mol. Fluorescence was recorded with a portable fluorometer, equipped with a 485 nm excitation filter and a 665 nm cutoff emission filter. The latter filter offered good signal-to-background ratio since serum/plasma autofluorescence is very low above 665 nm. The fluorescence of the perylene diimide derivative decreased approximately linearly (FIG. 4c) with increasing LMWH concentration, in buffered solution. The binding ration was calculated to be one perylene diimide derivative/2 disaccharides of heparin. Solutions containing 20 vol % serum or plasma required an only slightly larger (about 1.1-fold) LMWH concentration to trigger the same relative fluorescence decrease as observed in buffered solution.

## protamine
  reversibility of LMWH binding on addition of protamine: fluorescence was restored
